These results are taken from patent US20090099502A1, “Microneedle Device And Transdermal Administration Device Provided With Microneedles” (HISAMITSU PHARMACEUTICAL CO., INC., priority 2006, published 2009).

“Also recorded” adds a separate entry of the source. Counter-ions that a name gives are not always drawn.

For data set [1], the system named is hairless rat skin. In words: Skin permeation tests with a drug in its free and salt forms using hairless rats (Example 7). Conditions: both the fumarate and the free form, PVA117 coating.
Text: (§1) A piece of foam tape (#9773, 7.84 cm^2) of 3M Company was pasted on the back side of the microneedle substrate in such a way that the adhesive layer of the tape would face the skin. The projecting ends of the tape were attached to the skin to bring the microneedle side of the microneedle substrate in close contact with the skin. To start the experiment, the microneedle substrate was placed on the skin and pressure applied (2 kg/patch for 5 seconds) on the substrate with a finger.
(§2) Microneedles (800 piles/patch) were coated all over their surfaces with 30 μl/patch one of the coating carriers, and dried at room temperature for 12 h for fixing. Skin removed from hairless rats was pierced with microneedles coated with the drug formulations, including those having their free forms, and samples were removed periodically. Phosphate buffer solution (PBS) was used for the receptor layer. The receptor solution sample, sampled at different time points, and acetonitrile were mixed at 1:1 ratio, stirred, centrifuged (15,000 rpm, 5° C., 5 minutes), then the supernatant was recovered, and its drug content measured by HPLC.
Animal species: Hairless rat (n=3)
Data set [2] relates to hairless rat skin.
Text: as §1, §2
Animal species: Hairless rat (n=3)
The conditions of data set [3]: whether in the free or the salt form; cited from earlier work.
In data set [4] the test system is hairless rat skin. In words: Skin permeation test of granisetron hydrochloride, blister-type drug product (Example 5). Format: in vitro ADME. Conditions: in examples 4 and 5. As for the experimental part: In this experiment, the coating carrier was prepared for the entire surface of microneedles by using only 5 wt. % polyvinyl alcohol (PVA117), and the microneedles (800 pile/patch) were coated all over the surface with 30 μl/patch and dried for 12 h at room temperature for fixing. After piercing the skin with the microneedles, […] 32 wt. % aqueous solution of granisetron hydrochloride, 30 μl, was applied through the through-holes (openings) on the microneedle substrate. There were two control groups. In one of these, the microneedles were not given any coating and 30 μl of the drug solution alone was applied through the through-holes. In the other control group, an aqueous solution containing 5 wt. % of polyvinyl alcohol and 32 wt. % of granisetron hydrochloride was prepared, as before, as the coating carrier, and the microneedles (800 piles/patch) were coated all over the surface with 15 μl/patch of this coating carrier.
Skin was then removed from the trunk of a hairless rat and fitted to a vertical acrylic cell (2.54 cm^2) with the dermis side facing the receptor layer, and the whole assembly was placed in a constant temperature chamber set at 37° C. […] The drug content of the receptor solution obtained at each time of sampling was measured by HPLC (Excitation: 298 nm, fluorescence: 353 nm). […]

On to `CC(C)NCC(O)COc1ccc(COCCOC(C)C)cc1` (stereo not drawn) [Bisoprolol, bisoprolol], for which the skin permeability entry in data set [1] is on record as “good skin permeability”. The “maximum flux, salt form compared with free form” value in data set [2] is reported as “higher maximum flux in their salt form than in their free form”. Besides, in data set [2] (hairless, rat, 16 wt. %), the “maximum flux, Free form” value is 60 μg/cm^2/hr and the “maximum flux, Salt” value came out at 90 μg/cm^2/hr.

For the compound `CCCN1C[C@H](CSC)C[C@@H]2c3cccc4[nH]cc(c34)C[C@H]21` [Pergolide, pergolide], in data set [3], the solubility in water result was “almost no solubility in water; also recorded: extremely low solubility”. In data set [2] (hairless, rat, 16 wt. %), the “amount of drug permeation” value is given as “about 1 μg”; the “maximum flux, Free form” value is reported as 0.1< μg/cm^2/hr; the “maximum flux, Salt” value is recorded as 0.1< μg/cm^2/hr.

Turning to `CCCN[C@H]1CCc2nc(N)sc2C1` [Pramipexol, pramipexol], in data set [2], the “maximum flux, salt form compared with free form” value was “higher maximum flux in their salt form than in their free form”. In data set [2] (hairless, rat, 16 wt. %), the “maximum flux, Free form” value is 100 μg/cm^2/hr and the “maximum flux, Salt” value was 180 μg/cm^2/hr.

On to `CN1C2CCCC1CC(NC(=O)c1nn(C)c3ccccc13)C2` (stereo not drawn) [granisetron hydrochloride], for which the skin permeability entry in data set [4] is listed as “good skin permeability”.
